Laboratory results: publication PMC5859971 (Genes & Development, 2018)
pKd: −log10 of the molar value. Values joined by “and” are separate entries in the source; they are usually repeats but may differ in a detail not shown here. Equal values may be shown once.

Columns and labels:
[1] = target: T1, SF3b subcomplex (SF3B1 residues 454–1304, SF3B3, PHF5A, SF3B5) (Homo sapiens, UniProt O75533+Q7RTV0); assay: Microscale thermophoresis (MST) compound binding to SF3b subcomplex; conditions: SF3b subcomplex bound to NTA-647 fixed at 10 nM
T1 construct: SF3B1 was limited to the HEAT repeat domain from residues 454–1304 and cloned in-frame with an N-terminal Flag tag; Truncated SF3B1 and full-length SF3B3, PHF5A, and SF3B5 were synthesized; made in house; host or cells: SF21 insect cells (baculovirus, pFastBac1)
T1 sequence (O75533 454-1304): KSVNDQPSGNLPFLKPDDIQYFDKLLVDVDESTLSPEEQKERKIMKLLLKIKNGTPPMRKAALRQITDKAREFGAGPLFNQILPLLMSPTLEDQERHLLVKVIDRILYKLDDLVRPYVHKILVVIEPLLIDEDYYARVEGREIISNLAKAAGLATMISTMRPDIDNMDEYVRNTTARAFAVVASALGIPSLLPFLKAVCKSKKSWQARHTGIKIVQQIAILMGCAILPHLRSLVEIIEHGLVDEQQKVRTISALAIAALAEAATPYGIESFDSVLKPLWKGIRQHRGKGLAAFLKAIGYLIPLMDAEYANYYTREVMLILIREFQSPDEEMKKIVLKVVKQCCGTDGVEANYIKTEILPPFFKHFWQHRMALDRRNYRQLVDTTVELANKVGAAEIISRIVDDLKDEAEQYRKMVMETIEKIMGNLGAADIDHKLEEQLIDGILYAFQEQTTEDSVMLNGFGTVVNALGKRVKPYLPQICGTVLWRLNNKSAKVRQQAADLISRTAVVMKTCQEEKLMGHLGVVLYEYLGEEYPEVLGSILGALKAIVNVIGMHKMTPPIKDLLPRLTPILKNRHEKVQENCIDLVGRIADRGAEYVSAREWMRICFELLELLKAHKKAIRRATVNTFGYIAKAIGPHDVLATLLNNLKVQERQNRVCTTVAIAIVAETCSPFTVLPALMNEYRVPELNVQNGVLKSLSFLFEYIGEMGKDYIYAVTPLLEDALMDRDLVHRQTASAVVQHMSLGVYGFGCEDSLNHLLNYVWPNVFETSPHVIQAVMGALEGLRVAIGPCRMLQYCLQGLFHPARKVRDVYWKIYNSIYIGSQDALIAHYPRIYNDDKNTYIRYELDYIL
T1 sequence (Q9BWJ5 whole entry, further chain, the tested form may be a part): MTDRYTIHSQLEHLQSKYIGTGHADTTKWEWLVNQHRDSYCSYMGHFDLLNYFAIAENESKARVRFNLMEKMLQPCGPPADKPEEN
T1 sequence (Q7RTV0 whole entry, the tested form may be a part): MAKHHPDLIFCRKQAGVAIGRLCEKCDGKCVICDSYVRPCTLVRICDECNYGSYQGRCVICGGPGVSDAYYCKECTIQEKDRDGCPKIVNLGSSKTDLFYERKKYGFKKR
T1 sequence (Q15393 whole entry, further chain, the tested form may be a part): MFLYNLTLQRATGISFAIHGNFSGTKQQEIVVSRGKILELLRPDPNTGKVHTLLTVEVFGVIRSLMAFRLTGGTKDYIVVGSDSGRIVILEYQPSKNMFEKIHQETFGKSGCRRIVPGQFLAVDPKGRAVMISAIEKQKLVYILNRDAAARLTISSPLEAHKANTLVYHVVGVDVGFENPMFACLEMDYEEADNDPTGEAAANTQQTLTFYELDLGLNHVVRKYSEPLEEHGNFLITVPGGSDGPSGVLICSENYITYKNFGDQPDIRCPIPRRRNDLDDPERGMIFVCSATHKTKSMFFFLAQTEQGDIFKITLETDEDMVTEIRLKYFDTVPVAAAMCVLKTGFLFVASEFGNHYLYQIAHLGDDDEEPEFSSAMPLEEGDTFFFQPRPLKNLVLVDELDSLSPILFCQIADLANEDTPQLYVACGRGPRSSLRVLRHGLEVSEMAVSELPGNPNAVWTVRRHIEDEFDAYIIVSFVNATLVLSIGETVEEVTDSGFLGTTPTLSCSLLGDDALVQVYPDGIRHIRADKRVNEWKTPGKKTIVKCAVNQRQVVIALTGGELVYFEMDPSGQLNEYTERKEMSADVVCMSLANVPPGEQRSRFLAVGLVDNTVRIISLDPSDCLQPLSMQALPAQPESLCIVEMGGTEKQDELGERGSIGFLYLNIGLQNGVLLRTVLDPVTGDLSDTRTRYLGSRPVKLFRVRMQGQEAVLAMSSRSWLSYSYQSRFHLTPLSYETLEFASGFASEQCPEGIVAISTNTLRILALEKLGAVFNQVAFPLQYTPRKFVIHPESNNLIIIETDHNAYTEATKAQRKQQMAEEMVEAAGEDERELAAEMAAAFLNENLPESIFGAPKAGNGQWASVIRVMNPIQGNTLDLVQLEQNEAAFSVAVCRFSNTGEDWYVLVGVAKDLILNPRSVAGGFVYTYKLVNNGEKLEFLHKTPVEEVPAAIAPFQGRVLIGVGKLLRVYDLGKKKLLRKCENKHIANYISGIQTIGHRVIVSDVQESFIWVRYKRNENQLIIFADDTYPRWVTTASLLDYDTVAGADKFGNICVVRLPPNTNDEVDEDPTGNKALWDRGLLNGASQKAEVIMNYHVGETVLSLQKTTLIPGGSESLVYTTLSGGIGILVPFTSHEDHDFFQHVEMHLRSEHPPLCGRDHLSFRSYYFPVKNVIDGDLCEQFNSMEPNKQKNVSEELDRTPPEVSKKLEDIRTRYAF
Protocol: The four-protein complex composed of the HEAT repeats of SF3B1 (residues 454–1304) as well as full-length SF3B3, SF3B5, and PHF5A was coexpressed and purified from insect cells. This complex is necessary and sufficient for compound binding in a scintillation proximity assay (SPA) format ([Teng et al. 2017]).
The SF3b subcomplex was first titrated against a fixed concentration (25 nM) of fluorescent label (NTA-647) to determine the optimal concentrations of protein and label for the MST experiment. After 15 min of incubation at room temperature, samples were loaded into Monolith NT.115 capillaries, and MST analysis was performed using a Monolith NT.115Pico. […] For subsequent compound-binding experiments, the SF3b subcomplex bound to NTA-647 was fixed at 10 nM, and the compound was titrated from 50 µM to 3 pM. After 15 min of incubation, samples were loaded into capillaries, and analysis was performed as described previously.
Binding of E7107 to SF3b 4-protein complex by MicroScale Thermophoresis (MST). The complex is
labeled with the fluorescent dye NTA-647 and kept constant at 10 nM. E7107 was titrated and a KD of
3.6 nM was determined for the interaction.
(1 picture or pasted object on this page, not shown here)

HCT116-PHF5A^R38C = assay: CellTiter-Glo viability assay, HCT116-PHF5A^R38C; type: cell-based, human
Protocol: (§1) To further validate the pose of the compound, we analyzed the activity of several related chemical probes using the SPA with the purified protein complex ([Teng et al. 2017]). The SPA is formatted as a competition assay in which the purified protein complex is captured on a bead containing scintillant, incubated with test compounds over a dose response, and then competed off with a fixed concentration of ^3H-Plad compound. IC50 curves are then measured from the resulting light emitted from the bead (Table 1; Supplemental Fig. S4). In addition, we tested the probes in viability assays in two engineered cell lines: HCT116-PHF5A^WT and the sensitization line HCT116-PHF5A^R38C (Table 1; Supplemental Fig. S5). This facilitates profiling of chemical probe activity in the PHF5A background (wild type and mutant). The relative expression levels were further confirmed by Western blot analysis (Supplemental Fig. S5).
(§2) Parental HCT116 cells were obtained from American Type Culture Collection and cultured in RPMI 1640 medium supplemented with 10% fetal bovine serum. PHF5A R38C was generated using the Agilent QuikChange II kit and was cloned into pLenti6.3/V5 as described ([Teng et al. 2017]). The verified clone was used for lentivirus production using X293T cells. Parental HCT116 cells were infected with virus and selected with blasticidin S at 10 µg mL^−1 for 1 wk. Engineered cell lines were subsequently maintained in the absence of antibiotic. Transgene expression was confirmed by Western blot analysis (Supplemental Fig. S4). For Western blot analysis, α-PHF5A rabbit polyclonal antibody (Protein Tech, 15554-1-AP) was used at 1:1000 dilution in LI-COR buffer, and anti-rabbit secondary antibody (LI-COR) was used at 1:5000 dilution. The Western blot was imaged using an Odyssey V3.0 imager (LI-COR). For CellTiter-Glo analysis of the wild-type and PHF5A^R38C cell lines, 500 cells were seeded in each well of a 384-well plate 1 d before compound addition. Dose response was measured in 11-point serial dilutions with a top dose of 10 µM. The percentage of DMSO was controlled throughout, and a DMSO-only control was included. Seventy-two hours after dosing, CellTiter-Glo reagent was added, incubated, and assayed on an EnVision multilabel reader (PerkinElmer). Luminescence values from each treatment were normalized to the average value of the respective DMSO control. The dose response curve plots were generated in GraphPad Prism, and GI50 values were calculated from nonlinear regression analysis. GI50 values for the wild-type and R38C mutant cell lines were plotted in Spotfire.

HCT116-PHF5A^WT = assay: CellTiter-Glo viability assay, HCT116-PHF5A^WT; type: cell-based, human; conditions: Homo sapiens; 72 h, CellTiter-Glo; read-out: HCT116-PHF5A^WT GI50
Protocol: as §1, §2

Q: `CCC(O)C(C)C1OC1CC(C)(O)C=CC=C(C)C1OC(=O)CC(O)CCC(C)(O)C(OC(=O)N2CCN(C3CCCCCC3)CC2)C=CC1C` (centres unmarked) [Compound E7107] was tested. Which pKd [1] did it give?
A: 8.44 and ~8.44

Q: And the “sensitization (enhanced potency in PHF5A^R38C vs wild type)” value (HCT116-PHF5A^R38C; GI50 R38C vs wild type, n = 2)?
A: twofold

Q: What about the GI50 (HCT116-PHF5A^R38C; Homo sapiens, 72 h, CellTiter-Glo, read-out: HCT116-PHF5A^R38C GI50) of the same compound?
A: 1.2 nM

Q: What about the “PHF5A^R38C sensitization phenotype (words)” value (HCT116-PHF5A^R38C; R38C vs wild type) of the same compound?
A: sensitization

Q: What about the GI50 (HCT116-PHF5A^WT) of the same compound?
A: 2.3 nM
